From patent US6841569B2, “Carbamates of 2-heterocyclic-1,2-ethanediols” (SK Corporation, priority 2001, dated 2005)

Key:
mice (ICR strain) = assay: Maximal ElectroShock (MES) test; assay type: in vivo; settings: dosed i.p., Hour 1, elimination of hindlimb tonic extension, 50 mA-60 Hz for 0.2 second
Experimental: The therapeutic use of the compounds of formula I as anticonvulsants has been established by the “Maximal ElectroShock (MES)” test, which is a well-established pharmacological screening method for anticonvulsants against partial seizures, and the results are presented in Table I. The procedure employed in the MES test for anticonvulsants is as follows. The dosing solutions of the compounds to be tested were prepared in saline. The subjects, namely, mice (ICR strain), were dosed i.p. After the designated number of hours, maximal electroshock was induced in mice via corneal electrodes using IITC Life Science model 11A Shocker at 50 mA-60 Hz for 0.2 second. […] Median efficacy dose (ED50) levels were determined using three different dose levels with at least 6 mice in each group.

melting point	SMILES	MES ED50 (mice (ICR strain))
71 to 73 °C	O=NC(=O)CC(O)c1cccs1 (stereo not drawn) [Example 21, (2-(2-thienyl)-2-hydroxyethyl)oxocarboxamide]	
	CNC(=O)OCC(OC(=O)NC)c1ccc(Cl)s1 (stereo not drawn) [Example 7]	37.4 mg/kg
	NC(=O)OCC(OC(N)=O)c1ccc(C(F)(F)F)s1 (stereo not drawn) [Example 14, (2-(5-trifluoromethyl-2-thienyl)-2-carbomoyloxyethyl)oxocarboxamide]	12.6 mg/kg
